Measured values taken from article PMC10931833, “Simultaneous Purification of Human Interferon Alpha-2b and Serum Albumin Using Bioprivileged Fluorinated Ionic Liquid-Based Aqueous Biphasic Systems” (International Journal of Molecular Sciences, 2024).

What was measured:
[1] = target: T1, IFN-α2b (Homo sapiens, UniProt P01563); experiment: Far-UV CD secondary structure of IFN-α2b (CONTIN-LL deconvolution); assay type: physicochemical; details: 0.125 mg/mL IFN-α2b, 200 mM component, 25 °C
T1 construct: single non-glycosylated polypeptide chain with a molecular weight of 19 kDa, comprising 165 amino acids; purchased Millipore Sigma-Aldrich SRP4595-100UG; host or cells: E. coli
From the text: Circular dichroism (CD) is widely used to study the secondary structures of proteins, peptides and nucleic acids, because it requires a low concentration sample, is a nondestructive method, allows studying a wide range of variables (temperature, pH, etc.), and provides information on the effect of added ligands on protein folding and interactions.
Circular dichroism (CD) spectra were collected in a 10 mm quartz cuvette and a Chirascan spectropolarimeter (Applied Photophysics, UK) at room temperature. All CD spectra were recorded in the far-UV range of 190 to 260 nm at scan rates of 50 nm/min, with 4 accumulations, and a response time of 3 s; CD spectra were collected. For each CD experiment, two distinct duplicates were acquired and combined. […] Spectral deconvolution was carried out with DichroWeb using the CONTIN-LL deconvolution algorithm with the SMP180 reference set.

[2] = target: T2, BSA (Bos taurus, UniProt P02769); experiment: CD thermal unfolding (Tm) of BSA; assay type: physicochemical, bovine; details: 1.0 mg/ml BSA, 200 mM component aqueous solution
T2 construct: purchased Millipore Sigma-Aldrich
From the text: The thermal stability assessed by far-UV CD is solely determined through the thermal decay of the alpha-helical structure.

[3] = target: T1, IFN-α2b; experiment: CD thermal unfolding (Tm) of IFN-α2b; assay type: physicochemical; details: 0.125 mg/ml IFN-α2b, 200 mM component aqueous solution
Protocol: The same analyses attained for 208 nm and 192 nm are illustrated in Figures S5 and S6 in the Supplementary Materials. The corresponding T m values are estimated by fitting to a sigmoid with four parameters (one-way ANOVA, significance level of 0.05) and summarized in Table S2 in the Supplementary Materials. The CD T m of 0.125 mg/mL native IFN- α 2b is in good agreement with what was previously reported. […] The estimated T m values are summarized in Table S2 in the Supplementary Materials. The same analysis is attained for 208 nm and 192 nm, as depicted in Figures S5 and S6 in the Supplementary Materials. All the CD T m results are summarized in Table S2 in the Supplementary Materials. The thermal stability assessed by far-UV CD is solely determined through the thermal decay of the alpha-helical structure.
The same analysis was attained for 208 nm and 192 nm as illustrated in Figure S13 in the Supplementary Materials. The corresponding T m values are depicted in Table 5, and were estimated by fitting a sigmoid with four parameters (one-way ANOVA, with a significance level of 0.05).

[4] = set-up: method as in earlier work; details: aqueous solution at 25 °C; ITC ([C2C1Im][C4F9SO3]) or conductometry ([N1112(OH)][C4F9SO3]); ref 3 (supplement; main text ref 71); cited from earlier work
[5] = target: T2, BSA; experiment: DSC thermal unfolding of BSA in water and aqueous solutions of ABS phase-forming components; assay type: physicochemical, bovine; details: for Tm / ΔG / ΔHcal / ΔHcal/ΔHvH / ΔHvH / ΔS: 1.0 mg/mL BSA
Summary of the method: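 T m and unfolding enthalpy (ΔH) of BSA were taken from heat capacity versus temperature scans by nano DSC. BSA was scanned in water and with increasing concentrations of each ABS phase-forming component. T m is the midpoint of the thermal unfolding transition.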

T1 sequence (P01563 24-188): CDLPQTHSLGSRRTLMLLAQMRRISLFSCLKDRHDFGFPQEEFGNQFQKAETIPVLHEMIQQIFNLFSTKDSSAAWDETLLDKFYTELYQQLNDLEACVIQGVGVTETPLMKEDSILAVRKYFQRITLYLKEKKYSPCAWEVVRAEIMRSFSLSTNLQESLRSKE
T2 sequence (P02769 25-607): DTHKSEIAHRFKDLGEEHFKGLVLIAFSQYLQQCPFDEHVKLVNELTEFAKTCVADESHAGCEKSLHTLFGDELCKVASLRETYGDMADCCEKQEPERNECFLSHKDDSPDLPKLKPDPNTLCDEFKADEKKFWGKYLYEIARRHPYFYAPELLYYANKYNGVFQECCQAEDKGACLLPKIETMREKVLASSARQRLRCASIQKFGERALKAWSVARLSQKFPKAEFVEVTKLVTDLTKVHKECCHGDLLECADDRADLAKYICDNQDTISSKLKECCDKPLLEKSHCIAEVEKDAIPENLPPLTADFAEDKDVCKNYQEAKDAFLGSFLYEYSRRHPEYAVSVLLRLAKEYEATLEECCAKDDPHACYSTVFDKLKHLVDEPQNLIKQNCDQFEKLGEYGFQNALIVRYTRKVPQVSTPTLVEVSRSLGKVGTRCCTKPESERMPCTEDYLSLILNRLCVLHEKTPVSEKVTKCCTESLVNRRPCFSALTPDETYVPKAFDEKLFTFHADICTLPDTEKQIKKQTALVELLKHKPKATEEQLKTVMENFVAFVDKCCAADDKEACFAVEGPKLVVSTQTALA

In the case of `C[N+](C)(C)CCO.O=S(=O)([O-])C(F)(F)C(F)(F)C(F)(F)C(F)(F)F` [[N1112(OH)][C4F9SO3], (2-hydroxyethyl)trimethylammonium perfluorobutane sulfonate], the “Distorted Alpha Helix” value [1] is reported as 0.148, the “Distorted Beta Sheet” value [1] is reported as 0.064 and the “Regular Alpha Helix” value [1] is reported as 0.303. For the same molecule, the “Regular Beta Sheet” value [1] was 0.071, the Turns [1] was 0.188 and the Unordered [1] was 0.226. For the same molecule, the “Tm, Ellipticity 208 nm” value [2] was 92.409 °C, the “Tm, Ellipticity 192 nm” value [3] was 35.992 °C and the “Tm, Ellipticity 208 nm” value [3] was 61.234 °C. The “Tm, Ellipticity 222 nm” value [3] was 56.542 °C, the “1st CAC” value [4] was 16.02 mM and the “2nd CAC” value [4] was 35.17 mM. For the same molecule, the “3rd CAC” value [4] was 185.65 mM, the Tm ([5]; 0.1 mM component) was 79.77 °C and the ΔG ([5]; 0.1 mM component) was 22.44 kcal/mol. For the same molecule, the ΔHcal ([5]; 0.1 mM component) was 144.1 kcal/mol, the ΔHcal/ΔHvH ([5]; 0.1 mM component) was 1.064 and the ΔHvH ([5]; 0.1 mM component) was 135.5 kcal/mol. The ΔS ([5]; 0.1 mM component) was 1.708 KJ/(mol.K), the Tm ([5]; 1 mM component) was 80.57 °C and the ΔG ([5]; 1 mM component) was 22.08 kcal/mol. For the same molecule, the ΔHcal ([5]; 1 mM component) was 138.2 kcal/mol, the ΔHcal/ΔHvH ([5]; 1 mM component) was 0.921 and the ΔHvH ([5]; 1 mM component) was 150 kcal/mol. The ΔS ([5]; 1 mM component) was 1.629 KJ/(mol.K), the Tm ([5]; 5 mM component) was 79.79 °C and the ΔG ([5]; 5 mM component) was 26.41 kcal/mol. It also gave a ΔHcal ([5]; 5 mM component) of 169.4 kcal/mol, a ΔHcal/ΔHvH ([5]; 5 mM component) of 0.884 and a ΔHvH ([5]; 5 mM component) of 191.5 kcal/mol. For the same molecule, the ΔS ([5]; 5 mM component) was 2.007 KJ/(mol.K), the Tm ([5]; 10 mM component) was 82.78 °C and the ΔG ([5]; 10 mM component) was 32.27 kcal/mol. The ΔHcal ([5]; 10 mM component) was 197.9 kcal/mol, the ΔHcal/ΔHvH ([5]; 10 mM component) was 1.156 and the ΔHvH ([5]; 10 mM component) was 171.3 kcal/mol. The ΔS ([5]; 10 mM component) was 2.325 KJ/(mol.K), the Tm ([5]; 25 mM component) was 84.18 °C and the ΔG ([5]; 25 mM component) was 30.31 kcal/mol. For the same molecule, the ΔHcal ([5]; 25 mM component) was 182 kcal/mol, the ΔHcal/ΔHvH ([5]; 25 mM component) was 1.019 and the ΔHvH ([5]; 25 mM component) was 178.6 kcal/mol. The ΔS ([5]; 25 mM component) was 2.128 KJ/(mol.K), the Tm ([5]; 55 mM component) was 86.11 °C and the ΔG ([5]; 55 mM component) was 31.57 kcal/mol. The ΔHcal ([5]; 55 mM component) was 184.7 kcal/mol, the ΔHcal/ΔHvH ([5]; 55 mM component) was 0.929 and the ΔHvH ([5]; 55 mM component) was 198.7 kcal/mol. The ΔS ([5]; 55 mM component) was 2.149 KJ/(mol.K), the Tm ([5]; 200 mM component) was 87.23 °C and the ΔG ([5]; 200 mM component) was 28.51 kcal/mol. The ΔHcal ([5]; 200 mM component) was 167.9 kcal/mol, the ΔHcal/ΔHvH ([5]; 200 mM component) was 1.024 and the ΔHvH ([5]; 200 mM component) was 163.9 kcal/mol. The ΔS ([5]; 200 mM component) was 1.956 KJ/(mol.K) and the “increase of BSA Tm (DSC)” value ([5]; FIL at the highest concentration (120 mM) vs water) was roughly 12 °C.
